Test results from patent US9045505B2, “Nitric oxide donors” (University of Otago, priority 2006, dated 2015).

Columns and labels:
liver mitochondria = assay: Exposed protein thiols, glutathionylation and GSH/GSSG in liver mitochondria; assay type: biochemical, rat
Description: Mitochondrial incubations were usually in KCl buffer (120 mM KCl, 10 mM HEPES, 1 mM EGTA, 100 μM N,N-bis(2-bis[carboxymethyl]aminoethyl) glycine (DTPA) and 10 μM neocuproine, pH 7.2) with 10 mM succinate and 4 μg/ml rotenone in the dark at 37° C., unless stated otherwise. An electrode selective for the TPP moiety of MitoSNAP and MitoNAP was made and used as described previously (Asin-Cayuela, J., Manas, A. R., James, A. M., Smith, R. A. & Murphy, M. P. Fine-tuning the hydrophobicity of a mitochondria-targeted antioxidant. FEBS Letts. 571, 9-16 (2004)). Respiration rates were measured in a Clark type O2 electrode (Rank Brothers, UK). To measure GSH and GSSG, mitochondria (1 mg protein/ml) were incubated with 0-10 μM MitoSNO1 or MitoNAP for 10 min, pelleted by centrifugation and the GSH and GSSG contents assessed by the recycling assay (Scarlett, J. L., Packer, M. A., Porteous, C. M. & Murphy, M. P. Alterations to glutathione and nicotinamide nucleotides during the mitochondrial permeability transition induced by peroxynitrite. Biochem. Pharmacol. 52, 1047-1055 (1996)). The measurement of exposed mitochondrial protein thiols is described below.
Small molecules were removed by centrifugation through MicroBioSpin Columns (cut off=6 kDa), the eluate was clarified by centrifugation (2 min at 10,000×g) and protein thiols measured in triplicate by mixing 10 μl sample or GSH standard with 160 μl of 200 μM dithionitrobenzoic acid (DTNB) in 80 mM NaPi, 1 mM EDTA, pH 8 in a 96 well plate and absorbance at 412 nm was measured after 30 min at room temperature and the thiol content determined from the GSH standard curve. The protein concentration was measured in parallel by the bicinchonininc assay using BSA as a standard.
The interaction of MitoSNAP with mitochondrial thiol proteins is likely to initiate a dynamic process that may lead to other protein thiol modifications, such as disulfide formation, glutathionylation, sulfenylation or sulfenylamide formation, in addition to persistent S-nitrosation. To assess these, the content of reactive, solvent-exposed thiols on native liver mitochondrial proteins was measured. […] This is consistent with the finding that the maximum extent of mitochondrial protein S-nitrosation by 5 μM MitoSNAP (˜500 pmol SNO/mg protein; FIG. 11) was only ˜1% of the total number of protein thiols available. A small amount of MitoSNAP binding to mitochondrial thiol proteins through the formation of mixed disulfides was detectable by immunoblotting.

C2C12 cells = assay: S-nitrosation of cellular protein thiols in C2C12 cells; assay type: cell-based, mouse; settings: 5 μM
Description: FIG. 11 is a series of graphs showing S-nitrosation of mitochondrial thiols by MitoSNAP. (a) Time course of S-nitrosation of mitochondrial proteins by MitoSNAP. Liver mitochondria (1 mg protein) were incubated in 1 ml KCl buffer supplemented with rotenone and succinate in the presence of 5 μM MitoSNAP. At various times mitochondria were treated with 10 mM N-ethylmaleimide (NEM), isolated by centrifugation and the S-nitrosothiol content assessed. Data are of a typical experiment showing means±range of duplicate samples for each time point, each measured in duplicate. The experiment was repeated twice. (b) S-nitrosation of mitochondrial proteins by different concentrations of MitoSNAP and SNAP. Aliquots of liver mitochondria were incubated with the indicated concentrations of MitoSNAP or SNAP for […] in the presence or absence of 500 nM FCCP and then assessed for S-nitrosothiol content as in (a). For the +NEM sample, 10 mM NEM was added to the mitochondria and 1 min later 5 μM MitoSNAP was added and incubated for a further 2.5 min. Data are of a typical experiment showing means±range of duplicate samples for each time point, each measured in duplicate. The experiment was repeated twice. (c) S-nitrosation of cellular protein thiols by MitoSNAP. […] After further incubation for 5 min at 37° C. in the dark, the medium was removed and the content of S-nitrosated proteins was measured. […] After 5 min at 37° C. in the dark, the medium was removed and the cells were processed to isolate a mitochondria-enriched fraction and S-nitrosated protein was then determined Data are mean±sem of triplicate determinations (+MitoSNO1), or mean±range of duplicate determinations (+FCCP). […] S-nitrosated thiols were then selectively tagged with Cy3 maleimide and protein (10 μg) was then separated on a 12.5% SDS PAGE gel which was stained with coomassie blue and scanned for Cy3 fluorescence. The Cy3 fluorescence (SNO) and coomassie staining (coomassie) of each gel is shown. […]

CC(=O)NC(C(=O)NCCCCC[P+](c1ccccc1)(c1ccccc1)c1ccccc1)C(C)(C)SN=O.CS(=O)(=O)[O-] (stereo not drawn) [MitoSNAP, [5-(2-acetylamino-3-methyl-3-nitrosothio-butyrylamino)-penty1]-triphenylphosphonium methanesulfonate]
reactive, solvent-exposed thiols on native liver mitochondrial proteins (liver mitochondria; 5 μM, 5 min, mean±sem, n=3): 46.7±9.6 nmol thiols/mg protein | GSH and GSSG content of mitochondria (liver mitochondria; 10 μM, 10 min): no loss of GSH or accumulation of GSSG | protein-glutathione mixed disulfides (glutathionylation) (liver mitochondria; mitochondria, MitoSNAP 5 μM): not detectable | time of maximum S-nitrosation of cell proteins (C2C12 cells): 5 to 10 min | S-nitrosation of proteins of a mitochondria-enriched cell fraction (C2C12 cells; 5 min): extensively S-nitrosated | extent of cell protein S-nitrosation (C2C12 cells; 5 min): considerably greater than that by SNAP
